Like-named read-outs stand apart in the source and are kept apart here.
Assays:
human GPR120 (hGPR120) = biological target: T1, human GPR120 (hGPR120) (Homo sapiens, UniProt Q5NUL3); assay: Calcium flux assay in hGPR120-transfected CHO cells
T1 sequence (Q5NUL3 1-361): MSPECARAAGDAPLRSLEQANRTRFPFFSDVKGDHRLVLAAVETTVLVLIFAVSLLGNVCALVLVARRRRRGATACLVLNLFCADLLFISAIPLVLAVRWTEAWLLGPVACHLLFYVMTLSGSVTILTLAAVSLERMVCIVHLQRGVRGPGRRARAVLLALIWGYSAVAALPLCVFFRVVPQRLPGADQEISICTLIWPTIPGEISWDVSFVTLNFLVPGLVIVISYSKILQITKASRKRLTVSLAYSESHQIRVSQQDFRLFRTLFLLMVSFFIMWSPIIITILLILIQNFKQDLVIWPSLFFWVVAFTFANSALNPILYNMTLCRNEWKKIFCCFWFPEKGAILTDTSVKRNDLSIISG
Description: (§1) A calcium flux assay was performed to assess the agonist activity of the test compounds against the hGPR120 (mGPR120) and hGPR40 (mGPR40) receptors. […] The medium in the wells was gently discarded, and the wells were washed with Hank’s balanced salt solution (HBSS; 100 μL per well). […] The cells were then washed thrice in HBSS and allowed to equilibrate for 10 min before conducting the assay. Test compounds dissolved in dimethyl sulfoxide were diluted in HBSS at various concentrations and added to Fluo-4 AM-containing cells, and intracellular Ca^2+ concentrations were measured using FlexStation3 Molecular Devices. The EC50 value of each compound was calculated using GraphPad Prism software (version 5.0; GraphPad Software, San Diego, CA, USA).

C57BL/6 mice = assay: Oral glucose tolerance test (OGTT) in normal C57BL/6 mice; assay type: in vivo
Description: GPR120 agonists have been reported to increase GLP-1 secretion and improve glucose tolerance in vivo [28]. […] Compound 14d was orally administered at doses of 3, 10, 30, and 100 mg/kg, 30 min before the oral glucose challenge at a dose volume of 3 g/kg. Glucose levels were measured from 30 min before glucose challenge to 120 min after the glucose challenge.
Normal male C57BL/6 mice aged 9 weeks were used for the OGTT for compound 14d. C57BL/6 mice were weighed and randomly divided into six groups (eight mice per group) after 12 h of fasting. The test compounds were dissolved in 0.5% MC and vortexed before the study initiation. […] The exact dose volume was calculated separately for each animal. Blood samples were collected via the tail tip 30 min before the compound dose, at t = 0 (immediately before glucose loading), and 15, 30, 60, and 120 min after glucose loading. Blood glucose levels were measured using blood glucose test strips (Sannuo GA-3 type; Changsha, China). Glucose values were entered into an Excel sheet and plotted using GraphPad Prism software.

DIO mice = assay: Anti-hyperglycemic effects (OGTT, insulin) in DIO mice; assay type: in vivo, C57BL/6 mice; details: 20 mg/kg oral
Description: Blood samples were collected with retro-orbital sinus puncture, and glucose levels were measured in accordance with the OGTT in normal mice. Plasma insulin levels were measured using a mouse insulin RIA kit (Beijing North Institute of Biological Technology, Beijing, China).

mouse GPR40 (mGPR40) = mouse GPR40 (mGPR40) (Mus musculus, UniProt Q76JU9); assay: Calcium flux assay in CHO cells expressing mouse GPR40
Description: as §1

mouse GPR120 (mGPR120) = biological target: T2, mouse GPR120 (mGPR120) (Mus musculus, UniProt Q7TMA4); assay: Calcium flux assay in CHO cells expressing mouse GPR120
T2 sequence (Q7TMA4 1-361): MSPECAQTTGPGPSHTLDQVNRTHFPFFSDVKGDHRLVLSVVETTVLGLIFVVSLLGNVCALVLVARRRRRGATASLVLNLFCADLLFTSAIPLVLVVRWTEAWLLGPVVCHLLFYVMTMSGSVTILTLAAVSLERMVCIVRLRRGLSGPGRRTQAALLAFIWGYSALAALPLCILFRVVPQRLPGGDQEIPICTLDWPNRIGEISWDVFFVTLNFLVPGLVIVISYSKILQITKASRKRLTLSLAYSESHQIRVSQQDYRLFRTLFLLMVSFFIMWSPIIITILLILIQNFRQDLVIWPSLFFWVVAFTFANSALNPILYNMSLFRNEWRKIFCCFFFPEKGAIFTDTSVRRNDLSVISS
Description: as §1

[1] = Pharmacokinetic analysis in C57BL/6 mice; assay type: in vivo
Description: The pharmacokinetic profiles of 10k and 14d were obtained from C57BL/6 mice. […] The pharmacokinetic profiles traces were shown in the Supplementary Materials (Figure S1, see Supporting Materials).
Plasma was collected and precipitated using two volumes of acetonitrile containing an internal standard. This was followed by centrifugation at 15.680 g for 10 min after vortexing for 5 min. The supernatant was diluted with acetonitrile and 10 µL of the supernatant was analyzed by Waters LC-PDA-MS/MS to determine plasma drug levels. Pharmacokinetic parameters were determined using mean data from four mice at each time point. Statistical analysis of the data was performed using the DAS 2.1.1 statistical software program (BioVoice, Shanghai, China).

[2] = hGPR120, concentration response curve
[3] = mGPR120, concentration response curve

Sequence of mouse GPR40 (mGPR40) (Q76JU9 whole entry): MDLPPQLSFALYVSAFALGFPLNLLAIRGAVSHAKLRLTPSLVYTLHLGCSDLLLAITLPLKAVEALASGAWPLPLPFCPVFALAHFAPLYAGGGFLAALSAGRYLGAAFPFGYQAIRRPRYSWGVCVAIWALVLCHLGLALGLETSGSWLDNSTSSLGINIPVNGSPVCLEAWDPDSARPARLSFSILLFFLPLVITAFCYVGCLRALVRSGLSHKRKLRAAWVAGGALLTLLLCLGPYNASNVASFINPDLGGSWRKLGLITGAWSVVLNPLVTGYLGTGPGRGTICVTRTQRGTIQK

In the case of `O=C(O)CCCOc1ccc(COc2cc(F)ccc2-c2ccc(F)cc2)cc1F` [Compound 14d, 4-(4-(((4,4′-difluoro-[1,1′-biphenyl]-2-yl)oxy)methyl)-2-fluorophenoxy)butanoic acid], the melting point is reported as 89 to 91 °C, the EC50 (human GPR120 (hGPR120)) is reported as 37.5 nM and the Hill slope (human GPR120 (hGPR120); [2]) is reported as 0.9540. For the same compound, the “Hill slope (95%CI)” value (human GPR120 (hGPR120); [2]) was 0.8259-1.0820, the “Agonist type from dose-dependent curves” value (human GPR120 (hGPR120); hGPR120 and mGPR120) was “full agonist” and the “blood glucose in OGTT” value (C57BL/6 mice; 30 mg/kg oral, glucose 3 g/kg, superior to TUG-891) was “significant reduction in blood glucose”. The “dose dependence of glucose lowering and glucose AUC” value (C57BL/6 mice; 3, 10, 30, 100 mg/kg oral) was “dose-dependent”, the “reduction of plasma glucose AUC” value (C57BL/6 mice; OGTT, 30 mg/kg oral, after 120 min, compared with glucose alone, p < 0.001) was 25% and the “hypoglycemia during OGTT” value (C57BL/6 mice; normal C57BL/6 mice, during the experiment) was “no hypoglycemia was observed”. For the same compound, the hypoglycemic side effects (C57BL/6 mice; normal mice, even at a dose of 100 mg/kg) was “no hypoglycemic side effects were detected”, the “insulin levels 30 min after the glucose challenge” value (DIO mice; compared to vehicle-treated mice) was “significantly increased insulin levels” and the “glucose AUC0–120 min” value (DIO mice; glucose 2 g/kg) was “significantly lower than that of vehicle-treated mice”. The EC50 (mouse GPR40 (mGPR40)) was 12700 nM, the EC50 (mouse GPR120 (mGPR120)) was 83.2 nM and the Hill slope (mouse GPR120 (mGPR120); [3]) was 0.7745. The “Hill slope (95%CI)” value (mouse GPR120 (mGPR120); [3]) was 0.5397-1.0090, the Selectivity (mouse GPR120 (mGPR120); mGPR120 over mGPR40) was 152.6 and the “metabolic stability in vivo” value ([1]; C57BL/6 mice, pharmacokinetics, in words) was “excellent metabolic stability”. For the same compound, the Tmax ([1]; male, mouse, plasma, po, C57BL/6 mice, 10 mg/kg gavage) was 0.5 h, the Cmax ([1]; male, mouse, plasma, po, C57BL/6 mice, 10 mg/kg gavage, 0.5% MC, mean ± SD of four mice) was 2650 ± 288 ng/mL and the AUC ([1]; male, mouse, plasma, po, C57BL/6 mice, 10 mg/kg gavage, mean ± SD of four mice) was 5900 ± 584 ng·h/mL. The half-life ([1]; male, mouse, plasma, po, C57BL/6 mice, 10 mg/kg gavage, mean ± SD of four mice, read-out: t1/2 (converted)) was 1.6 ± 0.4 h, the clearance ([1]; rodents, in words) was “low clearance” and the half-life ([1]; rodents, in words) was “long half-life”.

— article PMC9781217, “Discovery of Novel and Selective G-Protein Coupled Receptor 120 (GPR120) Agonists for the Treatment of Type 2 Diabetes Mellitus” (Molecules, 2022)
